Experimental data from PubChem BioAssay (NCI).
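Step 1: Grow cells in 96-well plates. Step 2: Expose to compound for 48 hours at 5 concentrations. Step 3: Interpolate endpoints linearly; if unreached, use highest concentration. At the GI50, growth is halved. Definition used: TGI = concentration required for complete inhibition of growth.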

Experiments:
Assay in all cases: growth of human tumour cells (NCI), 48 h; in the data active means GI50 below about 0.43 µM; inactive means the rest
786-0 renal = system: 786-0 renal
A498 renal = system: A498 renal
A549 NSCLC = system: A549 NSCLC
ACHN renal = system: ACHN renal
CAKI-1 renal = system: CAKI-1 renal
CCRF-CEM leukemia = system: CCRF-CEM leukemia
COLO 205 colon = system: COLO 205 colon
DLD-1 colon = system: DLD-1 colon
DMS 114 small cell lung = system: DMS 114 small cell lung
DMS 273 small cell lung = system: DMS 273 small cell lung
EKVX NSCLC = system: EKVX NSCLC
HCC-2998 colon = system: HCC-2998 colon
HCT-116 colon = system: HCT-116 colon
HCT-15 colon = system: HCT-15 colon
HL-60(TB) leukemia = system: HL-60(TB) leukemia
HOP-18 NSCLC = system: HOP-18 NSCLC
HOP-62 NSCLC = system: HOP-62 NSCLC
HT29 colon = system: HT29 colon
IGROV1 ovarian = system: IGROV1 ovarian
K-562 leukemia = system: K-562 leukemia
KM12 colon = system: KM12 colon
KM20L2 colon = system: KM20L2 colon
LOX IMVI melanoma = system: LOX IMVI melanoma
LXFL 529 NSCLC = system: LXFL 529 NSCLC
M14 melanoma = system: M14 melanoma
M19-MEL melanoma = system: M19-MEL melanoma
MALME-3M melanoma = system: MALME-3M melanoma
MOLT-4 leukemia = system: MOLT-4 leukemia
NCI-H226 lung = system: NCI-H226 lung
NCI-H23 lung = system: NCI-H23 lung
NCI-H460 lung = system: NCI-H460 lung
NCI-H522 lung = system: NCI-H522 lung
OVCAR-3 ovarian = system: OVCAR-3 ovarian
OVCAR-4 ovarian = system: OVCAR-4 ovarian
OVCAR-5 ovarian = system: OVCAR-5 ovarian
OVCAR-8 ovarian = system: OVCAR-8 ovarian
RPMI-8226 leukemia = system: RPMI-8226 leukemia
RXF-631 renal = system: RXF-631 renal
SF-268 CNS = system: SF-268 CNS
SF-295 CNS = system: SF-295 CNS
SF-539 CNS = system: SF-539 CNS
SK-MEL-2 melanoma = system: SK-MEL-2 melanoma
SK-MEL-28 melanoma = system: SK-MEL-28 melanoma
SK-MEL-5 melanoma = system: SK-MEL-5 melanoma
SK-OV-3 ovarian = system: SK-OV-3 ovarian
SN12C renal = system: SN12C renal
SNB-19 CNS = system: SNB-19 CNS
SNB-75 CNS = system: SNB-75 CNS
SNB-78 CNS = system: SNB-78 CNS
SW-620 colon = system: SW-620 colon
TK-10 renal = system: TK-10 renal
UACC-257 melanoma = system: UACC-257 melanoma
UACC-62 melanoma = system: UACC-62 melanoma
UO-31 renal = system: UO-31 renal
XF 498 CNS = system: XF 498 CNS
HOP-92 NSCLC = system: HOP-92 NSCLC
RXF 393 renal = system: RXF 393 renal
U251 CNS = system: U251 CNS

CCO.CCO.Oc1ccc(Nc2ncns2)cc1.Oc1ccc(Nc2ncns2)cc1.[Ti]
80.7 µM: TGI (DMS 273 small cell lung)
91.8 µM: TGI (NCI-H23 lung)
87.7 µM: TGI (NCI-H460 lung)
69.1 µM: TGI (SNB-75 CNS)
67.5 µM: TGI (DMS 114 small cell lung)
70.7 µM: TGI (SK-MEL-2 melanoma)
74.1 µM: TGI (HL-60(TB) leukemia)
47.4 µM: TGI (COLO 205 colon)
72.3 µM: TGI (SK-MEL-5 melanoma)
87.9 µM: TGI (EKVX NSCLC)
inactive: GI50 (786-0 renal) 49.6 µM | GI50 (A498 renal) 28.6 µM | GI50 (A549 NSCLC) 43.6 µM | GI50 (ACHN renal) 33.2 µM | GI50 (CAKI-1 renal) 47.5 µM | GI50 (CCRF-CEM leukemia) 27.7 µM | GI50 (COLO 205 colon) 21.5 µM | GI50 (DLD-1 colon) 36.5 µM | GI50 (DMS 114 small cell lung) 21.6 µM | GI50 (DMS 273 small cell lung) 25.3 µM | GI50 (EKVX NSCLC) 34.6 µM | GI50 (HCC-2998 colon) 53.1 µM | GI50 (HCT-116 colon) 30.2 µM | GI50 (HCT-15 colon) 48.1 µM | GI50 (HL-60(TB) leukemia) 24.7 µM | GI50 (HOP-18 NSCLC) > 100 µM | GI50 (HOP-62 NSCLC) 71.5 µM | GI50 (HT29 colon) 31.5 µM | GI50 (IGROV1 ovarian) 93 µM | GI50 (K-562 leukemia) 29 µM | GI50 (KM12 colon) 47.5 µM | GI50 (KM20L2 colon) > 100 µM | GI50 (LOX IMVI melanoma) 30.1 µM | GI50 (LXFL 529 NSCLC) 24.7 µM | GI50 (M14 melanoma) 45.4 µM | GI50 (M19-MEL melanoma) 44.5 µM | GI50 (MALME-3M melanoma) 38.3 µM | GI50 (MOLT-4 leukemia) 27.5 µM | GI50 (NCI-H226 lung) > 100 µM | GI50 (NCI-H23 lung) 27.6 µM | GI50 (NCI-H460 lung) 26.7 µM | GI50 (NCI-H522 lung) 13.6 µM | GI50 (OVCAR-3 ovarian) 55.8 µM | GI50 (OVCAR-4 ovarian) 38.8 µM | GI50 (OVCAR-5 ovarian) > 100 µM | GI50 (OVCAR-8 ovarian) 39.7 µM | GI50 (RPMI-8226 leukemia) 31.3 µM | GI50 (RXF-631 renal) 33 µM | GI50 (SF-268 CNS) 36.2 µM | GI50 (SF-295 CNS) 69.9 µM | GI50 (SF-539 CNS) 34.5 µM | GI50 (SK-MEL-2 melanoma) 27.6 µM | GI50 (SK-MEL-28 melanoma) 53 µM | GI50 (SK-MEL-5 melanoma) 23.4 µM | GI50 (SK-OV-3 ovarian) > 100 µM | GI50 (SN12C renal) 67 µM | GI50 (SNB-19 CNS) 64.6 µM | GI50 (SNB-75 CNS) 15.8 µM | GI50 (SNB-78 CNS) 41.6 µM | GI50 (SW-620 colon) 39.5 µM | GI50 (TK-10 renal) 50.8 µM | GI50 (UACC-257 melanoma) 30.2 µM | GI50 (UACC-62 melanoma) 45.9 µM | GI50 (UO-31 renal) 41.6 µM | GI50 (XF 498 CNS) 44.9 µM
> 100 µM: TGI (786-0 renal) | TGI (A549 NSCLC) | TGI (ACHN renal) | TGI (CAKI-1 renal) | TGI (CCRF-CEM leukemia) | TGI (DLD-1 colon) | TGI (HCC-2998 colon) | TGI (HCT-116 colon) | TGI (HCT-15 colon) | TGI (HOP-18 NSCLC) | TGI (HOP-62 NSCLC) | TGI (HT29 colon) | TGI (IGROV1 ovarian) | TGI (K-562 leukemia) | TGI (KM12 colon) | TGI (KM20L2 colon) | TGI (LOX IMVI melanoma) | TGI (LXFL 529 NSCLC) | TGI (M14 melanoma) | TGI (M19-MEL melanoma) | TGI (MALME-3M melanoma) | TGI (MOLT-4 leukemia) | TGI (NCI-H226 lung) | TGI (OVCAR-3 ovarian) | TGI (OVCAR-4 ovarian) | TGI (OVCAR-5 ovarian) | TGI (OVCAR-8 ovarian) | TGI (RPMI-8226 leukemia) | TGI (RXF-631 renal) | TGI (SF-268 CNS) | TGI (SF-295 CNS) | TGI (SF-539 CNS) | TGI (SK-MEL-28 melanoma) | TGI (SK-OV-3 ovarian) | TGI (SN12C renal) | TGI (SNB-19 CNS) | TGI (SNB-78 CNS) | TGI (SW-620 colon) | TGI (TK-10 renal) | TGI (UACC-257 melanoma) | TGI (UACC-62 melanoma) | TGI (UO-31 renal) | TGI (XF 498 CNS)
28.3 µM: TGI (NCI-H522 lung)
74.9 µM: TGI (A498 renal)

COC(=O)C1CC(C(=O)OC)c2nc3cc([N+](=O)[O-])ccc3nc21 (stereo not drawn)
> 86.8 µM: TGI (HL-60(TB) leukemia)
> 31.6 µM: TGI (LOX IMVI melanoma)
> 100 µM: TGI (786-0 renal) | TGI (A498 renal) | TGI (A549 NSCLC) | TGI (ACHN renal) | TGI (CAKI-1 renal) | TGI (CCRF-CEM leukemia) | TGI (COLO 205 colon) | TGI (DLD-1 colon) | TGI (DMS 114 small cell lung) | TGI (DMS 273 small cell lung) | TGI (EKVX NSCLC) | TGI (HCT-116 colon) | TGI (HCT-15 colon) | TGI (HOP-18 NSCLC) | TGI (HOP-62 NSCLC) | TGI (HOP-92 NSCLC) | TGI (HT29 colon) | TGI (IGROV1 ovarian) | TGI (K-562 leukemia) | TGI (KM12 colon) | TGI (KM20L2 colon) | TGI (LXFL 529 NSCLC) | TGI (M14 melanoma) | TGI (M19-MEL melanoma) | TGI (MALME-3M melanoma) | TGI (MOLT-4 leukemia) | TGI (NCI-H226 lung) | TGI (NCI-H23 lung) | TGI (NCI-H460 lung) | TGI (OVCAR-3 ovarian) | TGI (OVCAR-4 ovarian) | TGI (OVCAR-5 ovarian) | TGI (OVCAR-8 ovarian) | TGI (RPMI-8226 leukemia) | TGI (RXF 393 renal) | TGI (RXF-631 renal) | TGI (SF-268 CNS) | TGI (SF-295 CNS) | TGI (SF-539 CNS) | TGI (SK-MEL-2 melanoma) | TGI (SK-MEL-28 melanoma) | TGI (SK-MEL-5 melanoma) | TGI (SK-OV-3 ovarian) | TGI (SN12C renal) | TGI (SNB-19 CNS) | TGI (SNB-75 CNS) | TGI (SNB-78 CNS) | TGI (SW-620 colon) | TGI (TK-10 renal) | TGI (U251 CNS) | TGI (UACC-257 melanoma) | TGI (UACC-62 melanoma) | TGI (XF 498 CNS)
> 59.1 µM: TGI (HCC-2998 colon)
98.9 µM: TGI (UO-31 renal)
> 64.7 µM: TGI (NCI-H522 lung)
